molecular target: T1, HIV-integrase (Human immunodeficiency virus type 1 group M subtype B, UniProt P12497); test: HIV-Integrase Inhibition Activity (SPA strand transfer assay); type: biochemical; conditions: recombinant integrase, SPA beads, P33 labeled target DNA; read-out: Activity (IC50 class, HIV-integrase inhibition)
T1 construct: Recombinant integrase (0.26 ng) was incubated with the beads
Description: HIV-Integrase InhibitionActivity. To evaluate in-vitro activity against HIV-integrase, 5 pmole of biotin labeled substrate DNA was bound to 100 μg of Streptavidin coated PVT SPA beads (Amersham Pharmacia Biotech). Recombinant integrase (0.26 ng) was incubated with the beads for 90 min at 37° C. Unbound enzyme was removed by washing the complex followed by addition of inhibitors and 0.1 fmol of P33 labeled target DNA. The reaction was stopped by adding EDTA to a final concentration of 10 mM. Samples were counted in TopCountNXT (Packard) and the CPM was used as a measure of integration. The reaction condition was as described in A. Engelman and R. Craigie, J. Virol. 69, 5908-5911 (1995). The sequences of substrate and target DNA were described in Nucleic Acid Research 22, 1121-1122 (1994). Activity equal to A refers to a compound having IC50=0.002 to 0.10 μM while B and C denote compounds having IC50=0.1 to 1.0 μM and IC50≧1.0 μM respectively.

Compared with `CC1(C)OCCn2c1nc(C(=O)NCC1Cc3ccccc3O1)c(O)c2=O` (centres unmarked) [Example 76, N-(2,3-dihydro-1-benzofuran-2-ylmethyl)-3-hydroxy-9,9-dimethyl-4-oxo-4,6,7,9-tetrahydropyrimido[2,1-c][1,4]oxazine-2-carboxamide], `CC1(C)OCCn2c1nc(C(=O)NCc1nccs1)c(O)c2=O` [Example 5, Pyrimido[2,1-c][1,4]oxazine-2-carboxamide, 4,6,7,9-tetrahydro-3-hydroxy-9,9-dimethyl-4-oxo-N-(2-thiazolylmethyl)-] is higher in IC50: 2 to 100 nM for the first, no less than 1000 nM for the second. The first is the more potent here.

`CC(=O)n1nc(CNC(=O)c2nc3n(c(=O)c2O)CCOC3(C)C)c2ccccc21` [Example 81, N-((1-Acetyl-1H-indazol-3-yl)methyl)-3-hydroxy-9,9-dimethyl-4-oxo-4,6,7,9-tetrahydropyrimido[2,1-c][1,4]oxazine-2-carboxamide] and `CC1(C)OCCn2c1nc(C(=O)NCc1ccc(Cc3ccccc3)o1)c(O)c2=O` [Example 27, Pyrimido[2,1-c][1,4]oxazine-2-carboxamide, 4,6,7,9-tetrahydro-3-hydroxy-9,9-dimethyl-4-oxo-N-[[5-(phenylmethyl)-2-furanyl]methyl]] fall in the same range of IC50: 2 to 100 nM for the first, 2 to 100 nM for the second.

Compared with `CC1(C)OCCn2c1nc(C(=O)NCc1ccco1)c(O)c2=O` [Example 38, Pyrimido[2,1-c][1,4]oxazine-2-carboxamide, N-(2-furanylmethyl)-4,6,7,9-tetrahydro-3-hydroxy-9,9-dimethyl-4-oxo-], “Pyrimido[2,1-c][1,4]oxazine-2- carboxamide, N-[(5,6-dichloro- 1H-benzimidazol-2-yl)methyl]- 4,6,7,9-tetrahydro-3-hydroxy-9,9- dimethyl-4-oxo- [Example 50]” is higher in IC50: 2 to 100 nM for the first, no less than 1000 nM for the second.

Compared with `CC1(C)OCCn2c1nc(C(=O)NCc1cc3ccccc3s1)c(O)c2=O` [Example 1, Pyrimido[2,1-c][1,4]oxazine-2-carboxamide, N-(benzo[b]thien-2-ylmethyl)-4,6,7,9-tetrahydro-3-hydroxy-9,9-dimethyl-4-oxo-], `CC1(C)OCCn2c1nc(C(=O)NCc1ccc(S(C)(=O)=O)o1)c(O)c2=O` [Example 88, 3-Hydroxy-9,9-dimethyl-N-((5-(methylsulfonyl)furan-2-yl)methyl)-4-oxo-4,6,7,9-tetrahydropyrimido[2,1-c][1,4]oxazine-2-carboxamide] is higher in IC50: 2 to 100 nM for the first, 100 to 1000 nM for the second.

“Pyrimido[2,1-c][1,4]oxazine-2- carboxamide, 4,6,7,9-tetrahydro-3- hydroxy-9,9-dimethyl-4-oxo-N- (1H-pyrazol-3-ylmethyl)- [Example 69]” and `Cc1ncsc1CNC(=O)c1nc2n(c(=O)c1O)CCOC2(C)C` [Example 23, Pyrimido[2,1-c][1,4]oxazine-2-carboxamide, 4,6,7,9-tetrahydro-3-hydroxy-9,9-dimethyl-N-[(4-methyl-5-thiazolyl)methyl]-4-oxo-] cannot be ordered by IC50: 100 to 1000 nM for the first, no less than 1000 nM for the second.

`Cn1cc(CNC(=O)c2nc3n(c(=O)c2O)CCOC3(C)C)nn1` [Example 25, Pyrimido[2,1-c][1,4]oxazine-2-carboxamide, 4,6,7,9-tetrahydro-3-hydroxy-9,9-dimethyl-N-[(1-methyl-1H-1,2,3-triazol-4-yl)methyl]-4-oxo-] and `Cc1nn(C)c(C)c1CNC(=O)c1nc2n(c(=O)c1O)CCOC2(C)C` [Example 39, Pyrimido[2,1-c][1,4]oxazine-2-carboxamide, 4,6,7,9-tetrahydro-3-hydroxy-9,9-dimethyl-4-oxo-N-[(1,3,5-trimethyl-1H-pyrazol-4-yl)methyl]-] cannot be ordered by IC50: no less than 1000 nM for the first, 100 to 1000 nM for the second.

“Pyrimido[2,1-c][1,4]oxazine-2- carboxamide, 4,6,7,9-tetrahydro-3- hydroxy-N-[2-(1H-indol-3- yl)ethyl]-9,9-dimethyl-4-oxo- [Example 57]” and `CC1(C)OCCn2c1nc(C(=O)NCc1cnn(-c3ccccc3)c1)c(O)c2=O` [Example 6, Pyrimido[2,1-c][1,4]oxazine-2-carboxamide, 4,6,7,9-tetrahydro-3-hydroxy-9,9-dimethyl-4-oxo-N-[(1-phenyl-1H-pyrazol-4-yl)methyl]-] cannot be ordered by IC50: 100 to 1000 nM for the first, no less than 1000 nM for the second.

First: Cc1cc(CNC(=O)c2nc3n(c(=O)c2O)CCOC3(C)C)cs1 [Example 32, Pyrimido[2,1-c][1,4]oxazine-2-carboxamide, 4,6,7,9-tetrahydro-3-hydroxy-9,9-dimethyl-N-[(5-methyl-3-thienyl)methyl]-4-oxo-]
Second: 2-Thiopheneacetic acid, 5- [[[(4,6,7,9-tetrahydro-3-hydroxy- 9,9-dimethyl-4-oxopyrimido[2,1- c][1,4]oxazin-2- yl)carbonyl]amino]methy]- [Example 55]
The IC50 of the first is lower: 2 to 100 nM for the first, 100 to 1000 nM for the second.

`Cc1cc(C)n2nc(CNC(=O)c3nc4n(c(=O)c3O)CCOC4(C)C)nc2n1` [Example 21, Pyrimido[2,1-c][1,4]oxazine-2-carboxamide, N-[(5,7-dimethyl[1,2,4]triazolo[1,5-a]pyrimidin-2-yl)methyl]-4,6,7,9-tetrahydro-3-hydroxy-9,9-dimethyl-4-oxo-] and `CC1(C)OCCn2c1nc(C(=O)NCc1nc3ccccc3[nH]1)c(O)c2=O` [Example 22, Pyrimido[2,1-c][1,4]oxazine-2-carboxamide, N-(1H-benzimidazol-2-ylmethyl)-4,6,7,9-tetrahydro-3-hydroxy-9,9-dimethyl-4-oxo-] cannot be ordered by IC50: no less than 1000 nM for the first, no less than 1000 nM for the second.

First: CC1(C)OCCn2c1nc(C(=O)NCc1csc(-c3ccc(Cl)cc3)n1)c(O)c2=O [Example 4, Pyrimido[2,1-c][1,4]oxazine-2-carboxamide, N-[[2-(4-chlorophenyl)-4-thiazolyl]methyl]-4,6,7,9-tetrahydro-3-hydroxy-9,9-dimethyl-4-oxo-]
Second: Cn1nc(CNC(=O)c2nc3n(c(=O)c2O)CCOC3(C)C)c2ccccc21 [Example 13, Pyrimido[2,1-c][1,4]oxazine-2-carboxamide, 4,6,7,9-tetrahydro-3-hydroxy-9,9-dimethyl-N-[(1-methyl-1H-indazol-3-yl)methyl]-4-oxo-]
The IC50 of the first is higher: 100 to 1000 nM for the first, 2 to 100 nM for the second.

First: CC1(C)OCCn2c1nc(C(=O)NCc1nc3ccccc3s1)c(O)c2=O [Example 92, N-(1,3-Benzothiazol-2-ylmethyl)-3-hydroxy-9,9-dimethyl-4-oxo-4,6,7,9-tetrahydropyrimido[2,1-c][1,4]oxazine-2-carboxamide]
Second: Pyrimido[2,1-c][1,4]oxazine-2- carboxamide, N-[(1-ethyl-1H- pyrazol-5-yl)methyl]-4,6,7,9- tetrahydro-3-hydroxy-9,9- dimethyl-4-oxo- [Example 68]
The IC50 of the first is lower: 2 to 100 nM for the first, no less than 1000 nM for the second.

Compared with `Cc1cccc(-n2cc(CNC(=O)c3nc4n(c(=O)c3O)CCOC4(C)C)cn2)c1` [Example 91, 3-Hydroxy-9,9-dimethyl-N-((1-(3-methylphenyl)-1H-pyrazol-4-yl)methyl)-4-oxo-4,6,7,9-tetrahydropyrimido[2,1-c][1,4]oxazine-2-carboxamide], `Cc1ccc(CNC(=O)c2nc3n(c(=O)c2O)CCOC3(C)C)n1C` [Example 9, Pyrimido[2,1-c][1,4]oxazine-2-carboxamide, N-[(1,5-dimethyl-1H-pyrrol-2-yl)methyl]-4,6,7,9-tetrahydro-3-hydroxy-9,9-dimethyl-4-oxo-] is lower in IC50: no less than 1000 nM for the first, 2 to 100 nM for the second. The second is the more potent here.

`Cc1cc(Br)c(CNC(=O)c2nc3n(c(=O)c2O)CCOC3(C)C)s1` [Example 33, Pyrimido[2,1-c][1,4]oxazine-2-carboxamide, N-[(3-bromo-5-methyl-2-thienyl)methyl]-4,6,7,9-tetrahydro-3-hydroxy-9,9-dimethyl-4-oxo-] and `Cc1cc(CNC(=O)c2nc3n(c(=O)c2O)CCOC3(C)C)sc1C` [Example 31, N-((4,5-dimethyl-2-thienyl)methyl)-3-hydroxy-9,9-dimethyl-4-oxo-4,6,7,9-tetrahydropyrimido[2,1-c][1,4]oxazine-2-carboxamide] fall in the same range of IC50: 2 to 100 nM for the first, 2 to 100 nM for the second.

First: CC1(C)OCCn2c1nc(C(=O)NCc1nc3c(s1)CCCCC3)c(O)c2=O [Example 90, 3-Hydroxy-9,9-dimethyl-4-oxo-N-(5,6,7,8-tetrahydro-4H-cyclohepta[d][1,3]thiazol-2-ylmethyl)-4,6,7,9-tetrahydropyrimido[2,1-c][1,4]oxazine-2-carboxamide]
Second: Cc1cc(CNC(=O)c2nc3n(c(=O)c2O)CCOC3(C)C)n(C)n1 [Example 8, Pyrimido[2,1-c][1,4]oxazine-2-carboxamide, N-[(1,3-dimethyl-1H-pyrazol-5-yl)methyl]-4,6,7,9-tetrahydro-3-hydroxy-9,9-dimethyl-4-oxo-]
The IC50 of the first is lower: 2 to 100 nM for the first, 100 to 1000 nM for the second.

“Pyrimido[2,1-c][1,4]oxazine-2- carboxamide, 4,6,7,9-tetrahydro-3- hydroxy-9,9-dimethyl-4-oxo-N- [(2,3,6,7-tetrahydro-1,3,7- trimethyl-2,6-dioxo-1H-purin-8- yl)methyl]- [Example 60]” and `Cc1nnc(CNC(=O)c2nc3n(c(=O)c2O)CCOC3(C)C)o1` [Example 86, 3-Hydroxy-9,9-dimethyl-N-((5-methyl-1,3,4-oxadiazol-2-yl)methyl)-4-oxo-4,6,7,9-tetrahydropyrimido[2,1-c][1,4]oxazine-2-carboxamide] cannot be ordered by IC50: no less than 1000 nM for the first, no less than 1000 nM for the second.

`CC1(C)OCCn2c1nc(C(=O)NCc1cc(-c3ccccc3)no1)c(O)c2=O` [Example 89, 3-Hydroxy-9,9-dimethyl-4-oxo-N-((3-phenyl-5-isoxazolyl)methyl)-4,6,7,9-tetrahydropyrimido[2,1-c][1,4]oxazine-2-carboxamide] and “Pyrimido[2,1-c][1,4]oxazine-2- carboxamide, N-[(1,3-dimethyl- 1H-pyrazol-4-yl)methyl]-4,6,7,9- tetrahydro-3-hydroxy-9,9- dimethyl-4-oxo- [Example 61]” cannot be ordered by IC50: no less than 1000 nM for the first, 100 to 1000 nM for the second.

— patent US7893055B2, “HIV integrase inhibitors” (priority 2006, dated 2011)
